Each structure is given as a SMILES string. Where two headings read alike, the source gives them in different places. Where only a bound is given, the exact number is not on record here.

By melting point is commonly meant the temperature of the solid-liquid transition.

Data set [1] has as its system NMDA receptors. In words: Blockade of NMDA-evoked cytosolic Ca2+ elevation (Fluo-4/AM) in rat cortical neurons. It is filed as cell-based. As for the experimental part:
(§1) The neuroblastoma SH-SY5Y cell line was obtained from the American Type Culture Collection (ATCC-CRL-2266), maintained and cultured in a 1:1 mixture of MEM and F12 media with 10% of fetal bovine serum (FBS), according to procedures previously described. For fluorescence-based [Ca^2+]c measurements, SH-SY5Y cells were seeded in clear-bottomed, 96-well black plates at a density of 40,000 cells/well. For viability assays, SH-SY5Y cells were seeded in 48-well plates at a density of 70,000 cells/well following the procedure recently reported. Rat cortical embryonic neurons were prepared from 19-day-old embryos directly seeded in the plate well treated with poly-D-lysine in neurobasal medium (Gibco 21103, Madrid, Spain) supplemented with 1% of L-glutamine (Sigma, G6392), 0.5% of penicillin/streptomycin and 0.1% of gentamincine. In fluorescence-based [Ca^2+]c measurement, neurons were seed at clear-bottomed, 96-well black plates at a density of 30,000 cells/well. For viability assays, the rat cortical neurons were also seeded in 48-well plates at a density of 40,000 cells/well. All the biological assays were conducted under sterile conditions.
To assess the blocking effect of compounds on the VGCC, we used SH-SY5Y cells charged with the Ca^2+-sensitive fluorescent dye Fluo-4/AM at 10 μM in Krebs-HEPES buffer, following a protocol recently described. Compounds were incubated at the desired concentrations (1, 3, 10, and 30 μM). The Ca^2+ entry was favored by addition of K^+ 70 mM to the extracellular medium. […] Rat cortical neurons were charged with Fluo-4/AM at 3 μM in Krebs-HEPES buffer and compounds incubated at same concentrations than before. To stimulate Ca^2+ entry through the NMDA-sensitive glutamate receptors, NMDA was applied at 10 μM. In both cases, fluorescence oscillations as result of the [Ca^2+]c increases were real-time monitored in a multi-well fluorescence plate reader (FluoStar Optima, BMG, Germany), with excitation and emission wavelengths of 485 and 520 nm, respectively. Data were calculated as fluorescence increase (ΔF), according to the formula: ΔF=Fx−Fo /Fmax−Fmin where Fx is the maximum fluorescence obtained after Ca^2+ entry stimulation, F0 is the averaged fluorescence before, Fmax is the maximum fluorescence of the well obtained by treating cells with 5% Triton X-100, and the Fmin is the minimum fluorescence of well obtained by adding MnCl2 1 M to the previously Triton-lysed cells. The ΔF data were normalized respect to the control (ΔFc).

In data set [2] the test system is VGCC. Put plainly: Blockade of 70 mM K+-evoked cytosolic Ca2+ elevation (Fluo-4/AM) in SH-SY5Y cells. Particulars: for Decrease of K+-evoked Ca2+ signaling compared with nifedipine: compounds 10 μM, nifedipine 10 μM. Format: cell-based. The procedure:
as §1
To assess the blocking effect of compounds on the VGCC, we used SH-SY5Y cells charged with the Ca^2+-sensitive fluorescent dye Fluo-4/AM at 10 μM in Krebs-HEPES buffer, following a protocol recently described. Compounds were incubated at the desired concentrations (1, 3, 10, and 30 μM). The Ca^2+ entry was favored by addition of K^+ 70 mM to the extracellular medium. To evaluate the blocking effect of compounds on NMDA receptors, we have followed a protocol recently reported by our research group. Rat cortical neurons were charged with Fluo-4/AM at 3 μM in Krebs-HEPES buffer and compounds incubated at same concentrations than before. To stimulate Ca^2+ entry through the NMDA-sensitive glutamate receptors, NMDA was applied at 10 μM. In both cases, fluorescence oscillations as result of the [Ca^2+]c increases were real-time monitored in a multi-well fluorescence plate reader (FluoStar Optima, BMG, Germany), with excitation and emission wavelengths of 485 and 520 nm, respectively. Data were calculated as fluorescence increase (ΔF), according to the formula: ΔF=Fx−Fo /Fmax−Fmin where Fx is the maximum fluorescence obtained after Ca^2+ entry stimulation, F0 is the averaged fluorescence before, Fmax is the maximum fluorescence of the well obtained by treating cells with 5% Triton X-100, and the Fmin is the minimum fluorescence of well obtained by adding MnCl2 1 M to the previously Triton-lysed cells. The ΔF data were normalized respect to the control (ΔFc). Data are presented as percentage of blockade (100% ΔF) at the concentration of 10 μM, or as IC50, i.e., the concentration of compound capable of halving the ΔFc (%ΔF = 50).

The nature of data set [3]: Blood-brain barrier permeation assay (PAMPA), porcine brain lipid. It is filed as in vitro ADME. To be noted: read-out: Pe, in vitro permeability (PAMPA-BBB). The procedure: The parallel artificial membrane permeation assay (PAMPA) was used to predict the capacity of compounds to cross the blood–brain barrier (BBB) by passive diffusion, in a similar manner as previously described. Compounds were dissolved in 10 mM phosphate-buffered saline (PBS) buffer (pH 7.4) to the concentration of 100 µM. The filter membrane of the donor 96-well plate (Multiscreen IP sterile clear plate PDVF membrane, pore size […]) was impregnated with 4 µL of porcine brain lipid (PBL) (Avanti Polar Lipids, Inc., Alabaster, AL, USA) in dodecane (20 mg/mL), and after 5 min, 180 µL of each compound solution was added. The acceptor 96-well plate (Multiscreen, Millipore Corp. Burlington, MA, USA) was filled with 180 µL of PBS and 1% of DMSO. Finally, the donor filter plate was carefully put on the acceptor plate to form a “sandwich”, which was left undisturbed for 4 h at rt. After incubation, an UV plate reader determined the concentration of compounds in both acceptor and donor wells (150 µL/well) as the maximum absorption wavelength of each compound. Concentration of the compounds in the donor and acceptor well, and equilibrium concentration were calculated from the standard curve and expressed as the permeability (Pe), according to the following formula: logPe=logC×−ln1−drugacceptor/drugequilibrium whereC=Vdonor×Vaceptor/Vdonor+Vaceptor×Area×Time)
Results are expressed as mean ± SEM of three different experiments in duplicate.
Background: PAMPA measures passive passage across an artificial lipid membrane.

The subject of data set [4] is rat cortical neurons. Put plainly: Per se toxicity, MTT reduction, rat cortical neurons. It is filed as cell-based. Particulars: 48 h. As for the experimental part: as §1
The per se toxicity of the new synthetized compounds was assessed in both cell cultures by the method of MTT reduction. After 24 h of seeding, SH-SY5Y cells were preincubated with compounds at different concentrations (1, 3, 10, and 30 μM) for 24 h. Afterwards, MEM/F12 medium was replaced by one fresh with 1% FBS with the compounds at the same concentration. The viability of cultures was measured 20 h later, following a procedure recently described. In the case of rat cortical neurons, 7 days after seeding, compounds were added to the wells to reach a final concentration of 1, 3, 10, and 30 μM. Forty-eight hours later, neuron viability was measure by the same procedure as the one described for SH-SY5Y cells.

The subject of data set [5] is SH-SY5Y cells. Put plainly: Neuroprotection against rotenone/oligomycin A (R/O), MTT, SH-SY5Y cells. To be noted: R/O 30/10 μM, compounds 10 μM. It is filed as cell-based. The procedure:
as §1
(§2) The effect of compounds on the SH-SY5Y cells and rat cortical neurons viability compromised of different toxics was also evaluated by method of MTT reduction. Twenty-four hours after seeding, SH-SY5Y cells were preincubated with compounds at the concentration of 10 μM for 24 h. Afterwards, MEM/F12 medium was replaced by one fresh with 1% FBS, compounds at the same concentration, and rotenone/oligomycin A administered to media at the concentration of 30/10 μM, respectively. The cultures’ viability was measured 20 h later, following the MTT procedure recently described. As reference neuroprotective compound, melatonin 10 nM was selected. In the case of the rat cortical neurons, 7 days after seeding in 48-well plates, neurons were preincubated adding the compounds at a final concentration of 10 μM for 24 h. Then, toxic stimuli of 50 µM of glutamate was added to the wells. After 20 h, cell viability was measured by the MTT procedure. Here, the reference protective compound used was memantine (30 nM).

Data set [6] concerns rat cortical neurons. Put plainly: Neuroprotection against glutamate 50 μM, MTT, rat cortical neurons. Particulars: compounds 10 μM. It is filed as cell-based. The procedure:
as §1, §2

Setting [7] is: compounds 1 to 30 μM, Fluo-4/AM, read-out: IC50, concentration halving the 70 mM K+-evoked Ca2+ elevation.
Setting [8] is: rat cortical embryonic neurons, NMDA 10 μM, compounds 1 to 30 μM; read-out: IC50, NMDA-evoked [Ca2+]c elevation.
Where [9] appears, read: porcine brain lipid, pH 7.4, 4 h, rt, Pe ≥ 4 indicates passive BBB crossing.

As to `CC12CC3CC(C)(C1)CC(N)(C3)C2` [Memantine, memantine, reference compound], in data set [1] (read-out: IC50, NMDA-evoked [Ca2+]c elevation; rat cortical embryonic neurons, NMDA 10 μM, compounds 1 to 30 μM), the IC50 was 17 µM.
For `COC(=O)C1=C(C)NC(C)=C(C(=O)OC)C1c1ccccc1[N+](=O)[O-]` [Nifedipine, nifedipine, reference compound], the IC50 in data set [2] (setting [7]) worked out at 15 µM.
In turn, `O=C1CSC(c2ccc([N+](=O)[O-])cc2)c2cc(Cl)ccc2N1` (centres unmarked) [compound 14, 7-Chloro-5-(4′-nitrophenyl)-3,5-dihydro-4,1-benzothiazepin-2-(1H)-one] had a melting point of 289 to 291 °C. For the same compound, in data set [2] (setting [7]), the IC50 was 29.9 µM. The IC50 in data set [1] (setting [8]) was greater than 30 µM. For the same compound, the Papp at 4 h, 100 µM in data set [3] (setting [9]) was less than 4 ×10⁻⁶ cm/s.
In the case of `O=C1CSC(c2ccncc2)c2cc(Cl)ccc2N1` (centres unmarked) [compound 15, 7-Chloro-5-(pyridin-4-yl)-3,5-dihydro-4,1-benzothiazepin-2-(1H)-one], the melting point lay within 224 to 226 °C. In data set [2] (setting [7]), the IC50 amounted to 20 µM. The IC50 in data set [1] (setting [8]) was greater than 30 µM.
In the case of `O=C1CSC(c2cccnc2)c2cc(Cl)ccc2N1` (centres unmarked) [compound 16, 7-Chloro-5-(pyridin-3-yl)-3,5-dihydro-4,1-benzothiazepin-2-(1H)-one], the melting point lay within 224 to 226 °C. Also, the IC50 in data set [2] (setting [7]) was greater than 30 µM. Moreover, the IC50 in data set [1] (setting [8]) was greater than 30 µM.
`O=C1CSC(c2ccccn2)c2cc(Cl)ccc2N1` (centres unmarked) [compound 17, 7-Chloro-5-(pyridin-2-yl)-3,5-dihydro-4,1-benzothiazepin-2-(1H)-one] came in with a melting point of 215 to 217 °C. The IC50 in data set [2] (setting [7]) was determined as 24.7 µM. For the same compound, the IC50 in data set [1] (setting [8]) is greater than 30 µM.
`O=C1CSC(c2ccncc2Cl)c2cc(Cl)ccc2N1` (centres unmarked) [compound 18, 7-Chloro-5-(3′-chloropyridin-4-yl)-3,5-dihydro-4,1-benzothiazepin-2-(1H)-one] had a melting point of 226 to 229 °C. Also, in data set [4], the “Effect on cell viability of rat cortical neurons at 30 μM” value (from here on “Effect on cell viability”) is listed as “slightly reduced cell viability in a significant manner”. In data set [2], the “Decrease of K+-evoked Ca2+ signaling compared with nifedipine” value is on record as “in a similar manner or even better than the reference compound nifedipine”. For the same compound, the IC50 in data set [2] (setting [7]) turned out to be 11.5 µM. Also, the IC50 in data set [1] (setting [8]) was 28.3 µM. Also, the Papp at 4 h, 100 µM in data set [3] (pH 7.4, threshold value of 40 nm/s) is greater than 4 ×10⁻⁶ cm/s.
`CN(C)c1ccc2c(c1)C(c1ccccc1Cl)SCC(=O)N2` (centres unmarked) [compound 26, 5-(2′-Chlorophenyl)-7-dimethylamino-3,5-dihydro-4,1-benzothiazepin-2-(1H)-one] yielded a melting point of 178 to 181 °C. Moreover, the “Effect on cell viability” value in data set [4] is listed as “slightly reduced cell viability in a significant manner”. Also, in data set [2] (setting [7]), the IC50 came to 25.4 µM. Besides, the IC50 in data set [1] (setting [8]) is greater than 30 µM. Moreover, the “Protection against R/O-induced oxidative stress (in words)” value in data set [5] is listed as “clear trend to protect against oxidative stress”. The Papp at 4 h, 100 µM in data set [3] (setting [9]) is less than 4 ×10⁻⁶ cm/s.
On to `COc1ccccc1C1SCC(=O)Nc2ccc(N(C)C)cc21` (centres unmarked) [compound 27, 7-Dimethylamino-5-(2′-methoxyphenyl)-3,5-dihydro-4,1-benzothiazepin-2-(1H)-one], for which the melting point lay within 233 to 236 °C. Also, the “Effect on cell viability” value in data set [4] was “slightly reduced cell viability in a significant manner”. Also, the IC50 in data set [2] (read-out: IC50, concentration halving the 70 mM K+-evoked Ca2+ elevation, compounds 1 to 30 μM, Fluo-4/AM) amounted to 29.3 µM. Besides, the IC50 in data set [1] (setting [8]) stood at 18.5 µM. For the same compound, the “Mitigation of the NMDA-elicited Ca2+ increase compared with memantine” value in data set [1] (rat cortical neurons, compounds 10 μM, memantine 10 μM) was “noticeable mitigation of the NMDA-elicited Ca^2+ increase, even higher than that exerted by the reference compound memantine”. Moreover, the “Protection against R/O-induced oxidative stress (in words)” value in data set [5] is “clear trend to protect against oxidative stress”.
Compound `CN(C)c1ccc2c(c1)C(c1ccc(F)cc1)SCC(=O)N2` (centres unmarked) [compound 28, 7-Dimethylamino-5-(4′-fluorophenyl)-3,5-dihydro-4,1-benzothiazepin-2-(1H)-one] came in with a melting point of 219 to 222 °C. The “Effect on cell viability” value in data set [4] is listed as “slightly reduced cell viability in a significant manner”. The IC50 in data set [2] (setting [7]) came to 19.5 µM. Further, the IC50 in data set [1] (setting [8]) was greater than 30 µM. For the same compound, in data set [5], the “Protection against R/O-induced oxidative stress (in words)” value is on record as “clear trend to protect against oxidative stress”.
As for `O=C1CSC(c2ccc(F)cc2)c2ccccc2N1` (centres unmarked) [compound 32, 5-(4′-Fluorophenyl)-3,5-dihydro-4,1-benzothiazepin-2-(1H)-one], the melting point lay in the range of 251 to 254 °C. The “Decrease of K+-evoked Ca2+ signaling compared with nifedipine” value in data set [2] was “in a similar manner or even better than the reference compound nifedipine”. In addition, in data set [2] (setting [7]), the IC50 was found to be 9.2 µM. In addition, in data set [1] (setting [8]), the IC50 is greater than 30 µM. In addition, the “Protection against glutamate-elicited neurotoxicity (in words)” value in data set [6] was “statistically significant dissipation of the glutamate-elicited neurotoxicity”. For the same compound, the Papp at 4 h, 100 µM in data set [3] (setting [9]) is less than 4 ×10⁻⁶ cm/s.

Values taken from paper PMC8347512, “Synthesis and Biological Assessment of 4,1-Benzothiazepines with Neuroprotective Activity on the Ca^2+ Overload for the Treatment of Neurodegenerative Diseases and Stroke” (Molecules, 2021).
